Results as given in patent US8957108B2, “Use of 5,6-dimethylxanthenone-4-acetic acid as an antiviral agent” (University of Maryland, Baltimore, priority 2006, dated 2015).

Assays:
Ft LVS = conditions: DMXAA alone (100 μg/ml), over a 24 hr period
murine colon tumors = conditions: mouse; cited from earlier work

Cc1ccc2c(=O)c3cccc(CC(=O)O)c3oc2c1C [DMXAA, 5,6-dimethylxanthenone-4-acetic acid]
effect on Ft LVS replication (Ft LVS): no effect
potency in vivo against murine colon tumors relative to FAA (murine colon tumors): 12 fold
